The values below come from patent publication US6632809B2, “Gyrase inhibitors and uses thereof” (Vertex Pharmaceuticals Incorporated, priority 2000, dated 2003).

In experiment [1] the target is DNA gyrase (374 kDa Gyr A2B2 subunit from Staphylococcus aureus) (Staphylococcus aureus, UniProt P0A0K8). Put plainly: Gyrase ATPase Assay. It is filed as biochemical. As to conditions: 10 μM concentration, ATPase assay at 30° C., 0.9 mM ATP, average of duplicate values; for inhibition at 10 µM: read-out: Gyrase Inhibitory Activity (percent inhibition). The method, then:
The ATP hydrolysis activity of DNA gyrase was measure by coupling the production of ADP through pyruvate kinase/lactate dehydrogenase to the oxidation of NADH. This method has been described previously (Tamura and Gellert, 1990, J. Biol. Chem., 265, 21342).
ATPase assays are carried out at 30° C. in buffered solutions containing 100 mM TRIS pH 7.6, 1.5 mM MgCl2, 50 mM KCl. The coupling system contains (final concentrations) 2.5 mM phosphoenol pyruvate, 200 μM nicotinamide adenine dinucleotide (NADH), 1 mM DTT, […], and 10 ug/ml lactate dehydrogenase. 40 nanomolar enzyme (374 kDa Gyr A2B2 subunit from Staphylococcus aureus) and a DMSO solution of the inhibitor to a final concentration of 4% are added and the reaction mixture is allowed to incubate for 10 minutes at 30° C. The reaction is then started by the addition of ATP to a final concentration of 0.9 mM and the rate of NADH disappearance at 340 nanometers is measured over the course of 10 minutes. The percent inhibition values are determined from rate versus concentration profiles and are reported as the average of duplicate values.
The compound numbers correspond to the compound numbers in Table 1. Compounds having an activity designated as “A” provided a percent inhibition value below 50 percent; compounds having an activity designated as “B” provided a percent inhibition value between 50 and 75 percent; and compounds having an activity designated as “C” provided a percent inhibition value greater than 75 percent.

The next experiment deals with test bacteria. Put plainly: Susceptibility Testing in Liquid Media (MIC assay). In kind it is cell-based. The settings on record: broth dilution, MHB, 35° C. overnight (16 to 20 hr), organism not given; for MIC: read-out: MIC (minimal inhibitory concentration) activity level. The protocol: Susceptibility Testing in Liquid Media
Compounds of this invention were also tested for antimicrobial activity by susceptibility testing in liquid media. Such assays were performed within the guidelines of the latest NCCLS document governing such practices: “M7-A5 Methods for dilution Antimicrobial Susceptibility Tests for Bacteria that Grow Aerobically; Approved Standard—Fifth Edition (2000)”. Other publications such as “Antibiotics in Laboratory Medicine” (Edited by V. Lorian, Publishers Williams and Wilkins, 1996) provide essential practical techniques in laboratory antibiotic testing. Essentially, several discrete bacterial colonies (3 to 7) from a freshly streaked plate were transferred to an appropriate rich broth medium such as MHB, supplemented where appropriate for the more fastidious organisms. This was grown overnight to high density followed by a 1 or 2-thousand-fold dilution to give an inoculation density of between 5×10^5 and 5×10^6 CFU per mL. Alternatively, the freshly picked colonies can be incubated at 37° C. for about 4 to 8 hrs until the culture equals or exceeds a turbidity of a 0.5 McFarland standard (approximately 1.5×10^8 cells per mL) and diluted to give the same CFU per mL as above. In a more convenient method, the inoculum was prepared using a commercially available mechanical device (the BBL PROMPT System) that involves touching five colonies directly with a wand, containing crosshatch grooves at its bottom, followed by suspension of the bacteria in an appropriate volume of saline. Dilution to the appropriate inoculum cell density was made from this cell suspension. The broth used for testing consists of MHB supplemented with 50 mg per L of Ca^2+ and 25 mg per L of Mg^2+. Standard dilution panels of control antibiotics were made and stored as in the NCCLS standard M7-A5, the dilution range typically being in the 128 μg per mL to 0.015 μg per mL (by 2-fold serial dilution). The test compounds were dissolved and diluted fresh for experimentation on the same day; the same or similar ranges of concentration as above being used. The test compounds and controls were dispensed into a multiwell plate and test bacteria added such that the final inoculation was approximately 5×10^4 CFU per well and the final volume was 100 μL. The plates were incubated at 35° C. overnight (16 to 20 hr) and checked by eye for turbidity or quantitated with a multiwell plate reader. […] Such determinations were also compared to the appropriate tables contained in the above two publications to ensure that the range of antibacterial activity is within the acceptable range for this standardized assay.
The compound numbers correspond to the compound numbers in Table 1.
A general note: Dilution methods test growth across graded concentrations, often in twofold steps.

Values after ≈ are worked out from the molar mass of the structure shown.

DNA gyrase (374 kDa Gyr A2B2 subunit from Staphylococcus aureus), sequence (P0A0K8 whole entry): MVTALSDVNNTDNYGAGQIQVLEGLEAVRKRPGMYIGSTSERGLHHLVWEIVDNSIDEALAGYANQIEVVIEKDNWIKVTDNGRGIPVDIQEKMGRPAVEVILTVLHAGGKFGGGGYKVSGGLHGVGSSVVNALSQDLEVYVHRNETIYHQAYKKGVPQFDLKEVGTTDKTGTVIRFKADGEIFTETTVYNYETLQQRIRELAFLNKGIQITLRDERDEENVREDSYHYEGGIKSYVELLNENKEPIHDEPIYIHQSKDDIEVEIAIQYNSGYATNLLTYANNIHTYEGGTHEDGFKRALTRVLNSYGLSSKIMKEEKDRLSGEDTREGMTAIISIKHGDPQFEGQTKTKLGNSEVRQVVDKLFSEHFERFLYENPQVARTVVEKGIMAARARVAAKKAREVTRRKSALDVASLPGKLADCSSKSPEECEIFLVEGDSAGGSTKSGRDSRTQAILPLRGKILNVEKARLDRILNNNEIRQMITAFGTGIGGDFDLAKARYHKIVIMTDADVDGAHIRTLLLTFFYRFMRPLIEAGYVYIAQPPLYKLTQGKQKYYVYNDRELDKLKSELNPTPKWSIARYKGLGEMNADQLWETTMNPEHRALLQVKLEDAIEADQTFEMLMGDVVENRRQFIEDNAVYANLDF
DNA gyrase (374 kDa Gyr A2B2 subunit from Staphylococcus aureus), sequence (P20831 whole entry, further chain): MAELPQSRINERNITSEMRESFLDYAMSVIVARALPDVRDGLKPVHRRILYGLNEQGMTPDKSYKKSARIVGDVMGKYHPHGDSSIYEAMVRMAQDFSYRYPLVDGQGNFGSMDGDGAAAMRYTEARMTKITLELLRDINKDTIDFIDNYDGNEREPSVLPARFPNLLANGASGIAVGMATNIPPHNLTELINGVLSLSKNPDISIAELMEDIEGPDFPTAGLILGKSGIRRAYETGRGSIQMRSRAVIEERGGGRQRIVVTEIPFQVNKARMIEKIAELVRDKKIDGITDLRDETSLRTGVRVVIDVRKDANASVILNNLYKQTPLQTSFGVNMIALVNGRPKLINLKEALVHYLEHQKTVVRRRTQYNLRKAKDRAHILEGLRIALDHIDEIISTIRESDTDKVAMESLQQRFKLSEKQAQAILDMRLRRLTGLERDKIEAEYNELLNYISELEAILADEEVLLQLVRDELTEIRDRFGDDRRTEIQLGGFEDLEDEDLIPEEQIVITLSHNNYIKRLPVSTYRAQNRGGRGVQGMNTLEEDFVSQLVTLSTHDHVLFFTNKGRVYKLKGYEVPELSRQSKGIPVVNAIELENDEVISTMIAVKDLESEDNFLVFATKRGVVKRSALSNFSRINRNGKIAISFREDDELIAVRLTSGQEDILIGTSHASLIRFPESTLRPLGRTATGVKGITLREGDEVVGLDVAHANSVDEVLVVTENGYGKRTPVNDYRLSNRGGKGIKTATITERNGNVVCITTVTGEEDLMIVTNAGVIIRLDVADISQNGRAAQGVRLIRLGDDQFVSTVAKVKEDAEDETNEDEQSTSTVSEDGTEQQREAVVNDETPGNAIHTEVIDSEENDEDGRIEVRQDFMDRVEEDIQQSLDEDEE

Consider `CCNC(=O)Nc1nc2cc(-c3cccnc3)c(OC)cc2[nH]1` [Ia-42], for which, in experiment [1], the inhibition at 10 µM was above 75%. Moreover, the MIC in the experiment on test bacteria lay in the range of 10 to 40 µg/mL (≈ 32.1 to 128 µM). The matching figures for `CCNC(=O)Nc1nc2cc(-c3cccnc3)cc(C)c2[nH]1` [Ia-58]: above 75% and below 10 µg/mL. Regarding `CCOC(=O)Nc1cncc(-c2ccc3[nH]c(NC(=O)OCC)nc3c2)c1` [Ia-87], the inhibition at 10 µM in experiment [1] was above 75%. The same measure, in the same setting: next, `CCOC(=O)Nc1nc2cc(-c3cnc(NCCN)nc3)ccc2[nH]1` [Ia-88]: above 75%.

Regarding `CCNC(=O)Nc1nc2cc(-c3ccccc3)cc(Br)c2[nH]1` [Ia-89], in experiment [1], the inhibition at 10 µM was above 75%. Turning to `CCNC(=S)Nc1nc2cc(-c3ccccc3)ccc2[nH]1` [Ia-90], the “Gyrase Inhibitory Activity (percent inhibition)” value in experiment [1] is “C (provided a percent inhibition value greater than 75 percent)”. Moreover, in the experiment on test bacteria, the MIC is below 10 µg/mL. In the case of `CCOC(=O)Nc1nc2cc(-c3cnc(N4CCN(S(C)(=O)=O)CC4)nc3)ccc2[nH]1` [Ia-91], in experiment [1], the inhibition at 10 µM is below 50%.

As to `CCNC(=O)Nc1nc2cc(-c3cnc(SC)nc3)ccc2[nH]1` [Ia-92], the inhibition at 10 µM in experiment [1] is above 75%. In the experiment with test bacteria, the MIC is below 10 µg/mL. `CCOC(=O)Nc1nc2cc(-c3cnc(NC(COC(C)(C)C)C(=O)OC(C)(C)C)nc3)ccc2[nH]1` (centres unmarked) [Ia-93]: the inhibition at 10 µM in experiment [1] was above 75%. Same read-out and setting: next, `CCOC(=O)Nc1nc2cc(-c3cnc(NC(CO)C(=O)O)nc3)ccc2[nH]1` (centres unmarked) [Ia-94]: above 75%; `CCN/C(=N\C)Nc1nc2cc(-c3ccccc3)ccc2[nH]1` [Ia-97]: below 50%. As to `CCNC(=O)Nc1nc2cc(-c3cnc(NCc4cccnc4)nc3)ccc2[nH]1` [Ia-98], the inhibition at 10 µM in experiment [1] was above 75%. For the same molecule, in the experiment on test bacteria, the MIC was 10 to 40 µg/mL (≈ 25.7 to 103 µM). As to `CCNC(=O)Nc1nc2cc(-c3cnc(NC(C)COC)nc3)ccc2[nH]1` (centres unmarked) [Ia-100], in experiment [1], the inhibition at 10 µM was above 75%.

Regarding `CCNC(=N)Nc1nc2cc(-c3ccccc3)ccc2[nH]1` [Ia-101], the inhibition at 10 µM in experiment [1] is below 50%. Same read-out and setting: next, `CCNC(=O)Nc1nc2cc(-c3cnc(NCCCOC)nc3)ccc2[nH]1` [Ia-102]: above 75%; `CCNC(=O)Nc1nc2cc(-c3cccnc3)cc(F)c2[nH]1` [Ia-103]: above 75%; `CCNC(=O)Nc1nc2cc(-c3cnc(NCCC4CCCN4C)nc3)ccc2[nH]1` (centres unmarked) [Ia-106]: above 75%. The same measure, in the same setting: next, `CCNC(=O)Nc1nc2cc(-c3cccnc3)cc(OC)c2[nH]1` [Ia-108]: above 75%; `CCNC(=O)Nc1nc2cc(-c3cnc(N4CC(C)CC(C)C4)nc3)ccc2[nH]1` (centres unmarked) [Ia-109]: above 75%. In the case of `CCNC(=O)Nc1nc2cc(-c3cnc(OC)nc3)c(OC)cc2[nH]1` [Ia-112], the inhibition at 10 µM in experiment [1] is above 75%. Besides, in the experiment on test bacteria, the MIC is below 10 µg/mL. For the molecule `CCNC(=O)Nc1nc2cc(-c3cnc(N4CCN(C(C)=O)CC4)nc3)ccc2[nH]1` [Ia-113], the inhibition at 10 µM in experiment [1] was above 75%.

For the molecule `CCOC(=O)Nc1nc2cc(-c3cncc(N)c3)ccc2[nH]1` [Ia-115], the inhibition at 10 µM in experiment [1] is below 50%. Turning to `CSc1ncc(-c2ccc3[nH]c(NC(=O)NC(C)C)nc3c2)cn1` [Ia-116], in experiment [1], the inhibition at 10 µM was 50 to 75%. Further, the MIC with test bacteria was above 40 µg/mL.

With `CSc1ncc(-c2ccc3[nH]c(NC(=O)NC4CCCC4)nc3c2)cn1` [Ia-117], the inhibition at 10 µM in experiment [1] is below 50%. Besides, the MIC in the experiment on test bacteria is above 40 µg/mL. Turning to `CCNC(=O)Nc1nc2cc(-c3cccnc3)ccc2[nH]1` [Ia-118], the inhibition at 10 µM in experiment [1] was above 75%. For the same molecule, the MIC in the experiment with test bacteria is below 10 µg/mL.

As to `CCCNC(=O)Nc1nc2cc(-c3cccnc3)ccc2[nH]1` [Ia-119], in experiment [1], the inhibition at 10 µM is above 75%. Moreover, the MIC in the experiment with test bacteria is above 40 µg/mL. For `CC(C)NC(=O)Nc1nc2cc(-c3cccnc3)ccc2[nH]1` [Ia-120] the same measures were 50 to 75% and above 40 µg/mL. As for `O=C(Nc1nc2cc(-c3cccnc3)ccc2[nH]1)NC1CCCC1` [Ia-121], in experiment [1], the inhibition at 10 µM was below 50%. Moreover, the MIC in the experiment with test bacteria was above 40 µg/mL. Regarding `CCOC(=O)Nc1nc2cc(-c3cncc(NC(C)=O)c3)ccc2[nH]1` [Ia-122], the inhibition at 10 µM in experiment [1] is above 75%. In addition, the MIC in the experiment with test bacteria is above 40 µg/mL.

`CCNC(=O)Nc1nc2cc(-c3cnc(N4CCN(S(C)(=O)=O)CC4)nc3)ccc2[nH]1` [Ia-124]: in experiment [1], the inhibition at 10 µM is 50 to 75%. Same read-out and setting: the figure for `CCNC(=O)Nc1nc2cc(-c3cnc(N4CCC(O)CC4)nc3)ccc2[nH]1` [Ia-125] is above 75%; for `CCNC(=O)Nc1nc2cc(-c3cnc(N)nc3)c(OC)cc2[nH]1` [Ia-126] it is above 75%. The same measure, in the same setting: the figure for `CCCN(CC1CC1)c1ncc(-c2ccc3[nH]c(NC(=O)NCC)nc3c2)cn1` [Ia-127] is above 75%; for `CCNC(=O)Nc1nc2cc(-c3cnc(NCc4ccc5c(c4)OCO5)nc3)ccc2[nH]1` [Ia-128] it is above 75%; for `CCNC(=O)Nc1nc2cc(-c3cnc(N4CCC(O)C4)nc3)ccc2[nH]1` (centres unmarked) [Ia-129] it is above 75%. Still for that read-out and setting: the figure for `CCNC(=O)Nc1nc2cc(-c3cnc(N4CCCC4COC)nc3)ccc2[nH]1` (centres unmarked) [Ia-130] is above 75%.

Consider `CCNC(=O)Nc1nc2cc(-c3cnc(N)nc3)c(F)cc2[nH]1` [Ia-131], for which the inhibition at 10 µM in experiment [1] is above 75%.

Regarding `CCNC(=O)Nc1nc2cc(-c3ccc(OC)nc3)ccc2[nH]1` [Ia-132], in experiment [1], the inhibition at 10 µM is above 75%. Consider `CCNC(=O)Nc1nc2cc(-c3cccnc3)c(C)cc2[nH]1` [Ia-133], for which the inhibition at 10 µM in experiment [1] is above 75%. Further, in the experiment on test bacteria, the MIC was below 10 µg/mL. Take `CCNC(=O)Nc1nc2cc(-c3cccnc3)cc(Cl)c2[nH]1` [Ia-134]: the inhibition at 10 µM in experiment [1] was above 75%.

`CCNC(=O)Nc1nc2cc(-c3ccc(CNC(=O)OC(C)(C)C)cc3)ccc2[nH]1` [Ia-135]: in experiment [1], the inhibition at 10 µM is above 75%. `CCNC(=O)Nc1nc2cc(-c3ccc(F)nc3)ccc2[nH]1` [Ia-136]: in experiment [1], the inhibition at 10 µM was above 75%. `CCNC(=O)Nc1nc2cc(-c3ccc(CN)cc3)ccc2[nH]1` [Ia-137]: the inhibition at 10 µM in experiment [1] was above 75%. Besides, the MIC in the experiment with test bacteria is above 40 µg/mL. The matching figures for `CCNC(=O)Nc1nc2cc(-c3ccc(CNS(C)(=O)=O)cc3)ccc2[nH]1` [Ia-138]: above 75% and above 40 µg/mL. Consider `CCNC(=O)Nc1nc2cc(-c3ccc(CN(C(=O)OC(C)(C)C)C(C)(C)C)nc3)ccc2[nH]1` [Ia-143], for which the inhibition at 10 µM in experiment [1] was above 75%. `CCNC(=O)Nc1nc2cc(-c3cccc(F)c3)ccc2[nH]1` [Ia-155]: the inhibition at 10 µM in experiment [1] was below 50%. Regarding `CCNC(=O)Nc1nc2cc(-c3cccnc3)cc(O)c2[nH]1` [Ia-169], the “MIC (minimal inhibitory concentration) activity level” value in the experiment with test bacteria was “B (provided an MIC of between 10 and 40 μg/mL)”. For the molecule `CCNC(=O)Nc1nc2cc(-n3cc(C(=O)N4CCOCC4)cn3)ccc2[nH]1` [Ia-172], in experiment [1], the inhibition at 10 µM was above 75%. On to `CCNC(=O)Nc1nc2cc(N3CCOCC3)ccc2[nH]1` [Ia-176], for which the inhibition at 10 µM in experiment [1] is below 50%.

As for `CCNC(=O)Nc1nc2cc(-n3cc(C(=O)O)c4ncccc43)ccc2[nH]1` [Ia-196], in the experiment on test bacteria, the MIC lay within 10 to 40 µg/mL (≈ 27.4 to 110 µM). Same read-out and setting: next, `CCNC(=O)Nc1nc2cc(-c3ccc(OCCOCC)nc3)ccc2[nH]1` [Ia-197]: 10 to 40 µg/mL (≈ 27.1 to 108 µM); `CCNC(=O)Nc1nc2nc(N3CCC(N)C3)ccc2[nH]1` (centres unmarked) [Ia-198]: 10 to 40 µg/mL (≈ 34.6 to 138 µM).

A word on the inhibition: it is the change of the read-out against control, counted positive when it falls.
